Test results reported in patent publication US10961539B2, “Promoter system inducing expression by 3-hydroxypropionic acid and method for biological production of 3-hydroxypropionic acid using same” (NOROO IC Co., Ltd., priority 2015, dated 2021).
“And” between values parts separate entries of the source, which are not always exact repeats. Identical values can stand only once. Like-named read-outs stand apart in the source and are kept apart here.

Columns and labels:
3hpdh = assay: RT-PCR relative mRNA level of 3-HP catabolic gene
3hibdh = format: cell-based, microorganisms shown in Table 1

O=C(O)CCO [3-HP, 3-hydroxypropionic acid]
inducer of expression of 3hpdH (3hpdh; FIG. 5): acts as an inducer | fold increase of 3hpdh mRNA expression (3hpdh; cells exposed to 25 mmol/L 3-HP vs no 3-HP, M9 medium, rpoD reference gene): 46 fold | 3hpdh expression on addition of 3-HP (3hpdh; strain with C3 LysR gene removed): not amplified | Relative mRNA level 3hibdh + 3-HP (3hibdh): 7.21 and 6.43 | Relative mRNA level 3hibdh + 3-HP (3hibdh; Achromobacter denitrificans, + 3-HP): 6.40 | Relative mRNA level 3hibdh + 3-HP (3hibdh; Acidovorax avenae subsp., + 3-HP): 5.97 | Relative mRNA level 3hibdh + 3-HP (3hibdh; Acidovorax sp., + 3-HP): 6.76 | Relative mRNA level 3hibdh + 3-HP (3hibdh; Acinetobacter baumannii, + 3-HP): 6.02 | Relative mRNA level 3hibdh + 3-HP (3hibdh; Aeromonas hydrophilia, + 3-HP): 6.17 | Relative mRNA level 3hibdh + 3-HP (3hibdh; Agrobacterium sp., + 3-HP): 6.27 | Relative mRNA level 3hibdh + 3-HP (3hibdh; Alcaligenes faecalis, + 3-HP): 5.87 | Relative mRNA level 3hibdh + 3-HP (3hibdh; Alcanivorax hongdengensis, + 3-HP): 6.74 | Relative mRNA level 3hibdh + 3-HP (3hibdh; Alicychphilus denitrificans, + 3-HP): 7.01 | Relative mRNA level 3hibdh + 3-HP (3hibdh; Alteromonas marina, + 3-HP): 6.09 | Relative mRNA level 3hibdh + 3-HP (3hibdh; Amycolatopsis sp., + 3-HP): 5.96 | Relative mRNA level 3hibdh + 3-HP (3hibdh; Anaeromyxobacter dehalogenans, + 3-HP): 6.43 | Relative mRNA level 3hibdh + 3-HP (3hibdh; Azospirillum brasilensse, + 3-HP): 6.54 | Relative mRNA level 3hibdh + 3-HP (3hibdh; Azotobacter vinelandii, + 3-HP): 6.73 | Relative mRNA level 3hibdh + 3-HP (3hibdh; Beijerinckia indica, + 3-HP): 6.59 | Relative mRNA level 3hibdh + 3-HP (3hibdh; Bordetella avium, + 3-HP): 6.04 | Relative mRNA level 3hibdh + 3-HP (3hibdh; Bradyrhizobium japonicum, + 3-HP): 7.21 | Relative mRNA level 3hibdh + 3-HP (3hibdh; Burkholderia ambifaria, + 3-HP): 5.94 | Relative mRNA level 3hibdh + 3-HP (3hibdh; Castellaniella defragrans, + 3-HP): 7.43 | Relative mRNA level 3hibdh + 3-HP (3hibdh; Catenulispora acidiphilia, + 3-HP): 5.84 | Relative mRNA level 3hibdh + 3-HP (3hibdh; Caulobacter sp., + 3-HP): 5.96 | Relative mRNA level 3hibdh + 3-HP (3hibdh; Chromobacterium violaceum, + 3-HP): 7.02 | Relative mRNA level 3hibdh + 3-HP (3hibdh; Collimonas arenae, + 3-HP): 7.20 | Relative mRNA level 3hibdh + 3-HP (3hibdh; Comamonas testosteroni, + 3-HP): 5.88 | Relative mRNA level 3hibdh + 3-HP (3hibdh; Corynebacterium vitaeruminis, + 3-HP): 6.99 | Relative mRNA level 3hibdh + 3-HP (3hibdh; Cupriavidus necator, + 3-HP): 6.84 | Relative mRNA level 3hibdh + 3-HP (3hibdh; Curvibacter gracilus, + 3-HP): 5.76 | Relative mRNA level 3hibdh + 3-HP (3hibdh; Delftia acidovorans, + 3-HP): 6.34 | Relative mRNA level 3hibdh + 3-HP (3hibdh; Ferrimonas balearica, + 3-HP): 7.04 | Relative mRNA level 3hibdh + 3-HP (3hibdh; Glaciecola nitratireducens, + 3-HP): 7.11 | Relative mRNA level 3hibdh + 3-HP (3hibdh; Gordonia bronchialis, + 3-HP): 6.99 | Relative mRNA level 3hibdh + 3-HP (3hibdh; Hahella chijuensis, + 3-HP): 6.81 | Relative mRNA level 3hibdh + 3-HP (3hibdh; Halomonas elongata, + 3-HP): 5.41 | Relative mRNA level 3hibdh + 3-HP (3hibdh; Hirschia litorea, + 3-HP): 6.19 | Relative mRNA level 3hibdh + 3-HP (3hibdh; Idiomarina sp., + 3-HP): 7.21 | Relative mRNA level 3hibdh + 3-HP (3hibdh; Janthinobacterium lividum, + 3-HP): 6.98 | Relative mRNA level 3hibdh + 3-HP (3hibdh; Kitasatospora setae, + 3-HP): 6.46 | Relative mRNA level 3hibdh + 3-HP (3hibdh; Kutzneria albida, + 3-HP): 5.96 | Relative mRNA level 3hibdh + 3-HP (3hibdh; Methylobacterium sp., + 3-HP): 6.02 | Relative mRNA level 3hibdh + 3-HP (3hibdh; Methylocystis sp., + 3-HP): 6.51 | Relative mRNA level 3hibdh + 3-HP (3hibdh; Novosphingobium sp., + 3-HP): 5.98 | Relative mRNA level 3hibdh + 3-HP (3hibdh; Oceanimonas smirnovii, + 3-HP): 6.44 | Relative mRNA level 3hibdh + 3-HP (3hibdh; Paracoccus sp., + 3-HP): 6.32 | Relative mRNA level 3hibdh + 3-HP (3hibdh; Parvibaculum lavamentivorans, + 3-HP): 7.31 | Relative mRNA level 3hibdh + 3-HP (3hibdh; Phenylobacterium kunshanensis, + 3-HP): 7.43 | Relative mRNA level 3hibdh + 3-HP (3hibdh; Photobacterium gaetbuleda, + 3-HP): 7.02 | Relative mRNA level 3hibdh + 3-HP (3hibdh; Polynucleobacter necessarius asymbioticus, + 3-HP): 6.99 | Relative mRNA level 3hibdh + 3-HP (3hibdh; Pseudoalteromonas carrgeenovora, + 3-HP): 5.76 | Relative mRNA level 3hibdh + 3-HP (3hibdh; Pseudogulbenkiania sp., + 3-HP): 5.98 | Relative mRNA level 3hibdh + 3-HP (3hibdh; Pseudomonas denitrificans ATCC13867, + 3-HP): 6.20 | Relative mRNA level 3hibdh + 3-HP (3hibdh; Pseudomonas fluorescens, + 3-HP): 5.81 | Relative mRNA level 3hibdh + 3-HP (3hibdh; Pseudomonas knackmussii, + 3-HP): 6.81 | Relative mRNA level 3hibdh + 3-HP (3hibdh; Pseudomonas protegens, + 3-HP): 5.62 | Relative mRNA level 3hibdh + 3-HP (3hibdh; Pseudoxanthomonas spadix, + 3-HP): 5.99 | Relative mRNA level 3hibdh + 3-HP (3hibdh; Psychrobacter phenylpyruvicus, + 3-HP): 7.04 | Relative mRNA level 3hibdh + 3-HP (3hibdh; Rhodomicrobium vannielli, + 3-HP): 7.01 | Relative mRNA level 3hibdh + 3-HP (3hibdh; Segniliparus rotundus, + 3-HP): 5.81 | Relative mRNA level 3hibdh + 3-HP (3hibdh; Shewanella oneidensis, + 3-HP): 5.81 | Relative mRNA level 3hibdh + 3-HP (3hibdh; Simiduia agarovorans, + 3-HP): 5.76 | Relative mRNA level 3hibdh + 3-HP (3hibdh; Sinorhizobium meliloti, + 3-HP): 5.79 | Relative mRNA level 3hibdh + 3-HP (3hibdh; Sphingobium chlorophenolicum, + 3-HP): 5.99 | Relative mRNA level 3hibdh + 3-HP (3hibdh; Sphingomonas wittichii, + 3-HP): 7.02 | Relative mRNA level 3hibdh + 3-HP (3hibdh; Sphingopyxis alaskensis, + 3-HP): 7.00 | Relative mRNA level 3hibdh + 3-HP (3hibdh; Stenotrophomonas maltophilia, + 3-HP): 6.02
